Laboratory results reported in patent publication US12466834B2, “Imidazodiazepinediones and methods of use thereof” (GFB (ABC), LLC, priority 2018, dated 2025).

Biological target: T1, human TRPC5 (Homo sapiens, UniProt Q9UL62)
T1 construct: expressed in transfected cells
T1 sequence (Q9UL62 1-973): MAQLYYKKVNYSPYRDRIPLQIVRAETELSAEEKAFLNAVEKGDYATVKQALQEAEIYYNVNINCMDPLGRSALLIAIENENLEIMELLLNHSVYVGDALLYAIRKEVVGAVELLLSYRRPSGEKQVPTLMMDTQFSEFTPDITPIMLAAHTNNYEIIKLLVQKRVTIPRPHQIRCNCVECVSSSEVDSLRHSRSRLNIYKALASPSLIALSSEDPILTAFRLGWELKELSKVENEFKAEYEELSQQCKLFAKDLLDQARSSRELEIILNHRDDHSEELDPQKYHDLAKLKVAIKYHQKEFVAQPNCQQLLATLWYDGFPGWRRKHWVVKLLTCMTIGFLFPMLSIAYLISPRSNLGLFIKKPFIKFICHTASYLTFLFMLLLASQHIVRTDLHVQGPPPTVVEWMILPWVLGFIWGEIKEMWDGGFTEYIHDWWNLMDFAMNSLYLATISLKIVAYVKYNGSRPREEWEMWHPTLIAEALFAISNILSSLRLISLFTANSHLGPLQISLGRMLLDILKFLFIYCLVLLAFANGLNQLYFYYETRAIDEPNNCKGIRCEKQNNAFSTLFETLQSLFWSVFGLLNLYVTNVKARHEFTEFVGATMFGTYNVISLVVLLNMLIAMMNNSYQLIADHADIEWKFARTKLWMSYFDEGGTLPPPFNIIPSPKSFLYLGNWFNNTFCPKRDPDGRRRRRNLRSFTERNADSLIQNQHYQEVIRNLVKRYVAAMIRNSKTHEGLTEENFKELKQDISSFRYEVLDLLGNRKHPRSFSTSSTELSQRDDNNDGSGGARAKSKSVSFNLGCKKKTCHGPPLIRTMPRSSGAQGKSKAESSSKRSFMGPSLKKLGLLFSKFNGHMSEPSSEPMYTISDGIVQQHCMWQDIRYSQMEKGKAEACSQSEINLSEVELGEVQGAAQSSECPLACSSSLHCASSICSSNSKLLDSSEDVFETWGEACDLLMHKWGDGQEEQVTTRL
Assay: FLIPR calcium assay, compound activation (agonism) of TRPC5 calcium response
Type: cell-based
Design: key to Agonist Potency Range (FLIPR): A=0.001-1 μM; B=1-10 μM; C=>1 μM; D=tested with a positive result for agonism, but EC50 not calculated
Settings: ICLN-1633 cells, Fluo-4 calcium response; for EC50: read-out: Agonist Potency Range (FLIPR)
Experimental: ICLN-1633 cells (HEK-TREx hTRPC5) expressing TRPC5 were generated as follows. Commercially available HekTrex-293 cells were seeded at 0.7×10^6 cells/well in a 1×6-well plate 24 hrs prior to transfection using 2 mL cell growth media containing no antibiotics (1× DMEM/high glucose (Hyclone #SH30022.02); 10% fetal bovine serum (Sigma) 2 mM sodium pyruvate, 10 mM HEPES). The human TRPC5 coding sequence (NM_012471 with a silent T478C mutation) was cloned into pcDNA5/TO (Invitrogen; Cat No. V103320) using hygromycin as the resistance gene and the plasmid (SEQ ID NO:1) propagated using T-Rex-293 cells (Invitrogen; Cat No. R71007) following manufacturer's directions. On day 2, 2 μg of plasmid DNA plus 6 μl of Xtreme-GENE HP reagent in Optimem (200 μl total volume) was prepared and incubated for 15 min at room temperature. This plasmid solution was then gently overlayed dropwise onto each well and the plate was gently swirled to mix complex with the media for approximately 30 seconds. Transfected cells were incubated at 37° C. in a 10% CO2 incubator for 24 hrs. The transfected cells were harvested and transferred into 2×150 mm dishes containing cell growth media with no antibiotics at 37° C.
Compounds were made up to, or supplied as a 10 mM stock solution generally using DMSO as the vehicle. 10-point dose response curves were generated using the Echo-550 acoustic dispenser. Compound source plates were made by serially diluting compound stocks to create 10 mM, 1 mM, and 0.1 mM solutions in DMSO into Echo certified LDV plates. The Echo then serially spotted 100% DMSO stock solutions into source dose response plates to generate a 4-fold dilution scheme. 100% DMSO was added to the spotted dose response plates to bring the final volume to 5 μl. 300 nl of the dose response stock plate was then spotted into pre-incubation and stimulation assay plates. 50 μl of pre-incubation buffer and 100 μl of stimulation buffer was then added to the plates resulting in a final assay test concentration range of 30 μM to 0.0001 μM with a final DMSO concentration of 0.3%.
Human ICLN-1633 cells expressing were plated onto 384 well, black poly-D-lysine-coated microplates and maintained in TRPC5 growth media the day prior to use for experiments. TRPC5 expression was induced by the application of 1 μg/mL tetracycline at the time of plating. Media was removed from the plates and 10 μl of 4 μM of Fluo-4 AM (mixed with equal volume of Pluronic F-127) in Earls's Balanced Salt Solution (EBSS) was added to the cells. Cells were incubated at room temperature, protected from light, for 60-90 minutes. After the incubation period, the dye was removed and replaced with 10 μl of EBSS. Cell, pre-incubation and stimulation plates were loaded onto the FLIPR-II and the assay was initiated. The FLIPR measured a 10 second baseline and then added 10 μl of 2× compounds (or controls). Changes in fluorescence were monitored for an additional 5 minutes. After the 5 minute pre-incubation, 20 μl of 2× riluzole (with 1× compound or controls) was added to the cell plate. The final riluzole stimulation concentration in the assay was 30 μM. After the riluzole addition, changes in fluorescence were monitored for an additional 5 minutes. Reduction in the riluzole-activated calcium response relative to control wells was reported as inhibition. A compound-mediated increase in the riluzole response relative to control riluzole response (no test agent present) with no enhancement of calcium entry during preincubation phase was reported as an agonist response.
Compound activation (agonism) of TRPC5 calcium response was determined as follows. After the initial compound addition, fluorescence was monitored for 5 minutes. The maximum relative fluorescence response (minus the control response of EBSS buffer alone) is captured and exported from the FLIPR. Compound activation is calculated using the following formula: […]

Agonist Potency Range (FLIPR)	EC50	SMILES
D	–	C[C@@H]1C(=O)N(C)c2nc(Oc3cccc(F)c3)n(Cc3ccc(Cl)cc3)c2C(=O)N1CCCO (single isomer, unassigned) [Compound 19]
–	1 to 10 µM	O=C1c2c(nc(Oc3cccc(OC(F)(F)F)c3)n2Cc2ccc(Cl)cc2)N2CCC[C@H]2C(=O)N1CCCO (single isomer, unassigned) [Compound 22]
–	> 10 µM	O=C1c2c(nc(Oc3cccc(OC(F)(F)F)c3)n2Cc2ccc(Cl)cc2)N2CCC[C@@H]2C(=O)N1CCCO (single isomer, unassigned) [Compound 23]
–	> 10 µM	CN1CC(=O)N(CCCO)C(=O)c2c1nc(Oc1cccc(OC(F)(F)F)c1)n2Cc1ccc(Cl)cc1 [Compound 21, 1-[(4-chlorophenyl)methyl]-7-(3-hydroxypropyl)-4-methyl-2-[3-(trifluoromethoxy)phenoxy]-1H,4H,5H,6H,7H,8H-imidazo[4,5-e][1,4]diazepine-6,8-dione]
